Experimental data reported in PubChem BioAssay (NCI).
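Compound exposure: 48 hours, 5 concentrations, 96-well plates. GI50 is the concentration that inhibits growth by half. Definition used: TGI = concentration required for complete inhibition of growth.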

Key:
Test in all cases: inhibition of tumour cell growth, NCI panel, 48 h
[1] = tested on: ACHN renal
[2] = tested on: HCT-116 colon
[3] = tested on: IGROV1 ovarian
[4] = tested on: K-562 leukemia
[5] = tested on: NCI-H522 lung
[6] = tested on: OVCAR-5 ovarian
[7] = tested on: HL-60(TB) leukemia
[8] = tested on: HOP-62 NSCLC
[9] = tested on: RXF 393 renal

SMILES | TGI [1] | TGI [2] | TGI [3] | TGI [4] | TGI [5] | TGI [6] | TGI [7] | TGI [8] | TGI [9] | GI50 [1] | GI50 [2] | GI50 [8] | GI50 [3] | GI50 [4] | GI50 [5] | GI50 [6] | GI50 [9] | GI50 [7]
O=C1c2ccccc2C(=O)N1CCc1ncc[nH]1 | > 100 µM | > 100 µM | > 100 µM | > 100 µM | > 100 µM | > 100 µM | – | – | – | – | – | – | – | – | – | – | – | –
O=C(O)CCSC(=O)Nc1ccc([N+](=O)[O-])cc1 | > 100 µM | > 100 µM | > 100 µM | > 100 µM | – | – | > 100 µM | > 100 µM | > 100 µM | – | – | – | – | – | – | – | – | –
COc1ccc2c(c1)[n+](=O)c(C(=O)C/C(=N/OCCCc1ccccc1)C(=O)NC13CC4CC(CC(C4)C1)C3)c(C)n2[O-] | > 100 µM | > 100 µM | > 100 µM | > 100 µM | > 100 µM | > 100 µM | > 100 µM | > 100 µM | – | – | – | – | – | – | – | – | – | –
Nc1cccc(S(=O)(=O)NCC(=O)O)c1 | > 100 µM | > 100 µM | > 100 µM | > 100 µM | > 100 µM | > 100 µM | – | > 100 µM | > 100 µM | – | – | – | – | – | – | – | – | –
COC1(OC)CC2OC1C1N=NN(C(=O)OC(C)(C)C)C21 (stereo not drawn) | > 100 µM | – | > 100 µM | > 100 µM | – | > 100 µM | 81.6 µM | > 100 µM | > 100 µM | – | – | – | – | – | – | – | – | –
CCCC1N2CCCCC2[C@@H]2c3[nH]c4ccccc4c3CCN12 (stereo partly drawn) | > 100 µM | > 100 µM | > 100 µM | > 100 µM | – | > 100 µM | > 100 µM | > 100 µM | > 100 µM | – | – | – | – | – | – | – | – | –
O=C(CC1(O)C(=O)Nc2ccccc21)c1ccncc1 (stereo not drawn) | > 100 µM | > 100 µM | > 100 µM | > 100 µM | > 100 µM | > 100 µM | > 100 µM | – | > 100 µM | – | – | – | – | – | – | – | – | –
CCc1ccccc1NC(=O)C1=C(C)NC(C)=C(C(=O)Nc2ccccc2CC)C1c1ccc2c(c1)OCO2 | 90.7 µM | – | > 100 µM | > 100 µM | > 100 µM | 82.9 µM | 47.8 µM | 59.8 µM | 94.1 µM | – | – | – | – | – | – | – | – | –
COc1ccc(NC(=O)CC(=O)N/N=C/c2ccc(N(CCC#N)S(C)(=O)=O)cc2)cc1 | > 100 µM | > 100 µM | > 100 µM | > 100 µM | > 100 µM | > 100 µM | – | > 100 µM | > 100 µM | – | – | – | – | – | – | – | – | –
CCOC(=O)/C(C#N)=C/c1[nH]c(C(=O)OCc2ccccc2)c(C)c1C | > 100 µM | – | > 100 µM | > 100 µM | > 100 µM | > 100 µM | > 100 µM | > 100 µM | > 100 µM | – | – | – | – | – | – | – | – | –
Cc1ccc(NC(=O)CC(=O)n2nc(C)c(N=Nc3ccccc3C(=O)O)c2C)cc1 | – | > 100 µM | > 100 µM | > 100 µM | > 100 µM | > 100 µM | > 100 µM | > 100 µM | – | – | – | – | – | – | – | – | – | –
COCCCNC(=O)C1C(=O)C(=O)N(CCCOC)C1=O (stereo not drawn) | > 100 µM | > 100 µM | > 100 µM | > 100 µM | > 100 µM | > 100 µM | > 100 µM | > 100 µM | – | – | – | – | – | – | – | – | – | –
C/C(CC(=O)Nc1cc(C)ccc1C)=N\NC(=O)c1ccncc1 | – | > 100 µM | > 100 µM | > 100 µM | > 100 µM | > 100 µM | > 100 µM | > 100 µM | > 100 µM | – | – | – | – | – | – | – | – | –
COc1ccc2nc3c(C(=O)NCCN(C)C)cccc3nc2c1 | > 100 µM | 28.1 µM | 93.5 µM | 29.5 µM | – | 81.3 µM | > 100 µM | 21.4 µM | > 1 µM | – | – | – | – | – | – | – | – | –
NC(=O)COC(=O)c1c(Cl)nc2sccn12 | > 100 µM | > 31.6 µM | > 100 µM | > 100 µM | > 100 µM | > 100 µM | > 81.8 µM | > 100 µM | – | – | – | – | – | – | – | – | – | –
CCC[CH2][Sn]1([CH2]CCC)[O]C(=O)CN=Cc2c(ccc3ccccc23)[O]1 | 1.05 µM | 2.32 µM | > 100 µM | 1.09 µM | 0.198 µM | 3.35 µM | – | > 100 µM | 0.318 µM | 0.319 µM | 1.04 µM | 3.91 µM | 2.48 µM | 0.245 µM | 0.0605 µM | 1.93 µM | 0.136 µM | –
Nc1nc(N(Cc2ccccc2)c2ccccc2)c2cn[nH]c2n1 | > 100 µM | > 100 µM | > 100 µM | > 100 µM | > 100 µM | – | 6.6 µM | > 100 µM | 22 µM | 5 µM | 3.19 µM | 3.47 µM | 4.16 µM | 2.49 µM | 2.62 µM | – | 2.93 µM | 1.57 µM
CCOC1Oc2ccc(C)cc2C(=O)/C1=C\Nc1ccc(C(N)=O)cc1 (stereo not drawn) | 40.6 µM | 26.2 µM | 72.5 µM | 66.6 µM | 47.3 µM | 47.1 µM | – | 33.7 µM | 49 µM | 14.9 µM | 13.4 µM | 17.6 µM | 18.9 µM | 22.6 µM | 20.8 µM | 22 µM | 22.9 µM | –
N#CSC1CCCCNC1=O (stereo not drawn) | 29.9 µM | > 100 µM | – | 62.3 µM | 21.3 µM | 13.2 µM | 87.4 µM | 41.8 µM | 34 µM | – | – | – | – | – | – | – | – | –
Cc1cc(Cl)cc2c1NC(=O)C2(O)CC(=O)c1ccco1 (stereo not drawn) | > 100 µM | > 100 µM | > 100 µM | 54.6 µM | > 100 µM | > 100 µM | – | > 100 µM | > 100 µM | – | – | – | – | – | – | – | – | –
O=C1CCC2(c3ccccc3)Nc3ccncc3N12 (stereo not drawn) | > 10 µM | > 10 µM | – | > 10 µM | > 10 µM | > 10 µM | > 10 µM | – | – | – | – | – | – | – | – | – | – | –
Nc1c(-c2ccc(Cl)cc2)[n+]([O-])c2ccccc2[n+]1[O-] | > 100 µM | – | > 100 µM | > 100 µM | 85.6 µM | > 100 µM | > 100 µM | > 100 µM | – | – | – | – | – | – | – | – | – | –
CCN(CC)CCCC(C)Nc1c2ccc(Cl)cc2nc2ccc(O)cc12 (stereo not drawn) | 2.81 µM | 3.08 µM | – | 8.94 µM | 3.71 µM | 7.78 µM | 6.25 µM | 5.32 µM | 4.27 µM | 1.17 µM | 1.13 µM | 1.49 µM | – | 2.22 µM | 1.28 µM | 2.21 µM | 1.61 µM | 2.06 µM
